Here are results for 1 molecule from patent US8546428B2 (priority 2006, dated 2013).

For the test, the system named is Mycobacteria including drug resistant strains, in particular Mycobacterium tuberculosis, M. bovis, M. avium, M. leprae and M. marinum. The format is cell-based.

Take `COc1nc2ccc(Br)cc2cc1[C@@H](c1ccccc1)[C@@](O)(CCN(C)C)c1cccc2ccccc12.O=C(O)/C=C/C(=O)O` [Present fumarate salt, (alpha S, beta R)-6-bromo-alpha-[2-(dimethylamino)ethyl]-2-methoxy-alpha-1-naphthalenyl-beta-phenyl-3-quinolineethanol (2E)-2-butenedioate (1:1)]: the “activity against Mycobacteria” value was “shows activity”.
